Test results reported in patent US20110046191A1, “COMBINATION OF A MUSCARINIC RECEPTOR ANTAGONIST AND A BETA-2-ADRENOCEPTOR AGONIST” (ARGENTA DISCOVERY LTD., priority 2007, published 2011).
Several values for one entry are separate records, joined by “and”; a condition that tells them apart may be missing. Identical values can stand only once. Counter-ions that a name gives are not always drawn.

Key:
[1] = target: T1, Adrenergic β2 (Homo sapiens, UniProt P07550); assay: Adrenergic β2 mediated cAMP production in H292 cells (AlphaScreen); type: cell-based; conditions: Intrinsic Activity as a fraction relative to the maximum activity of formoterol
T1 construct: Adherent H292 cells were removed from tissue culture flasks; endogenous in cells; host or cells: H292 cells
Description: Adrenergic β2 Mediated cAMP Production
H292 cells were grown in 225 cm2 flasks incubator at 37° C., 5% CO2 in RPMI medium containing, 10% (v/v) FBS (foetal bovine serum) and 2 mM L-glutamine.
Adherent H292 cells were removed from tissue culture flasks by treatment with Accutase™ cell detachment solution for 15 minutes. Flasks were incubated for 15 minutes in a humidified incubator at 37° C., 5% CO2. Detached cells were re-suspended in RPMI media (containing 10% (v/v) FBS and 2 mM L-glutamine) at 0.05×10^6 cells per mL. 5000 cells in 100 μL were added to each well of a tissue-culture-treated 96-well plate and the cells incubated overnight in a humidified incubator at 37° C., 5% CO2. The culture media was removed and cells were washed twice with 100 μL assay buffer and replaced with 50 μL assay buffer (HBSS solution containing 10 mM HEPES pH7.4 and 5 mM glucose). Cells were rested at room temperature for 20 minutes after which time 25 μL of rolipram (1.2 mM made up in assay buffer containing 2.4% (v/v) dimethylsulphoxide) was added. Cells were incubated with rolipram for 10 minutes after which time Compound A was added and the cells were incubated for 60 minutes at room temperature. The final rolipram concentration in the assay was 300 μM and final vehicle concentration was 1.6% (v/v) dimethylsulphoxide. The reaction was stopped by removing supernatants, washing once with 100 μL assay buffer and replacing with 50 μL lysis buffer. The cell monolayer was frozen at −80° C. for 30 minutes (or overnight).
The concentration of cAMP (cyclic adenosine monophosphate) in the cell lysate was determined using AlphaScreen™ methodology. […] The AlphaScreen™ signal was measured using an EnVision spectrophotometer (Perkin-Elmer Inc.) with the recommended manufacturer's settings. cAMP concentrations were determined by reference to a calibration curve determined in the same experiment using standard cAMP concentrations. […] Intrinsic Activity was expressed as a fraction relative to the maximum activity determined for formoterol in each experiment.

[2] = tested on: Methacholine-induced bronchoconstriction in the guinea pig; assay: Lung function in anaesthetised guinea pigs: methacholine-induced bronchoconstriction; type: in vivo; conditions: 2 hours prior to methacholine, after 5 μg/kg methacholine i.v.
Description: Evaluation of Lung Function in Anaesthetised Guinea Pigs.
Male Dunkin-Hartley guinea pigs (300-600 g) were weighed and dosed with vehicle (0.05M phosphate, 0.1% Tween 80, 0.6% saline, pH 6) or compound via the intratracheal route under recoverable gaseous anaesthesia (5% halothane in oxygen). Animals were dosed with compound or vehicle two hours prior to the administration of methacholine. Guinea pigs were anaesthetised with pentobarbitone (1 mL/kg of 60 mg/mL solution i.p.) approximately 30 minutes prior to the first bronchoconstrictor administration. The trachea was cannulated and the animal ventilated using a constant volume respiratory pump (Harvard Rodent Ventilator model 683) at a rate of 60 breath/min and a tidal volume of 5 mL/kg. A jugular vein was cannulated for the administration of methacholine or maintenance anaesthetic (0.1 mL of pentobarbitone solution, 60 mg/mL, as required).
The animals were transferred to a Flexivent System (SCIREQ, Montreal, Canada) in order to measure airway resistance. The animals were ventilated (quasi-sinusoidal ventilation pattern) at 60 breaths/min at a tidal volume of 5 mL/kg. A positive end expiratory pressure of 2-3 cm H2O was applied. Respiratory resistance was measured using the Flexivent “snapshot” facility (1 second duration, 1 Hz frequency). Once a stable baseline resistance value had been obtained the animals were given methacholine in ascending doses (0.5, 1, 2, 3 and 5 μg/kg, i.v) at approximately 4-minute intervals via the jugular catheter. After each administration of bronchoconstrictor the peak resistance value was recorded. Guinea pigs were euthanised with approximately 1.0 mL pentobarbitone sodium (Euthatal) intravenously after the completion of the lung function measurements.
Percentage bronchoprotection produced by a compound was calculated at each dose of brochoconstrictor as follows:
Where % change Rveh is the mean of the maximum percentage change in airway resistance in the vehicle treated group. The results reported were measured after 5 μg/kg methacholine and were expressed as percentage bronchoprotection (mean±s.e.mean).
Guinea pigs were dosed with vehicle, 3 and 27 μg/kg compound (BA1), 0.2 μg/kg compound (MA2) (Crystalline Form A) or a combination of 3 μg/kg Compound (BA1) and 0.2 μg/kg Compound (MA2) via the intratracheal route. Administration of increasing intravenous doses of methacholine (0.5, 1, 2, 3 and 5 μg/kg) evoked dose-related bronchoconstriction in the vehicle treated animals ranging from 13±2.6% at 0.5 μg/kg to 2530±280% at 5 μg/kg two hours after vehicle administration (n=9).
[…] Administration of increasing intravenous doses of methacholine (0.5, 1, 2, 3 and 5 μg/kg) evoked dose-related bronchoconstriction in the vehicle treated animals ranging from 14±2.6% at 0.5 μg/kg to 2240±269% at 5 μg/kg two hours after vehicle administration (n=10).

[3] = target: T2, recombinant human adrenergic beta 1 receptors (Homo sapiens, UniProt P08588); assay: Adrenergic β1 selectivity binding assay ([125I]-Iodocyanopindolol); conditions: inhibition of [125I]-Iodocyanopindolol binding; read-out: β1 bind p IC50
T2 construct: purchased Euroscreen
Description: Membranes containing recombinant human adrenergic beta 1 receptors were obtained from Euroscreen. These were diluted in Assay Buffer (50 mM HEPES, 1 mM EDTA, 120 mM NaCl, 0.1% gelatin, pH 7.4) to provide a final concentration of membranes that gave a clear window between maximum and minimum specific binding.
Assays were performed in U-bottomed 96-well polypropylene plates. […] For each assay plate 8 replicates were obtained for [^125I]-Iodocyanopindolol binding in the presence of 10 μL vehicle (10% (v/v) DMSO in Assay Buffer; defining maximum binding) or 10 μL Propranolol (10 μM final concentration; defining non-specific binding (NSB)). Membranes were then added to achieve a final volume of 100 μL. […] Five washes with 250 μL wash buffer (50 mM HEPES, 1 mM EDTA, 120 mM NaCl, pH 7.4) were performed at 4° C. to remove unbound radioactivity. The plates were dried then sealed from underneath using Packard plate sealers and MicroScint-O (50 μL) was added to each well. The plates were sealed (TopSeal A) and filter-bound radioactivity was measured with a scintillation counter (TopCount, Packard BioScience) using a 3-minute counting protocol.
Total specific binding (B0) was determined by subtracting the mean NSB from the mean maximum binding. NSB values were also subtracted from values from all other wells.

[4] = target: T3, recombinant human α1D receptor (Homo sapiens, UniProt P25100); assay: Adrenergic α1D selectivity binding assay ([3H]-prazosin); conditions: inhibition of [3H]-prazosin binding; read-out: α1 bind pIC50 (converted)
T3 construct: expressed in transfected cells; host or cells: HEK293
T3 sequence (P25100 1-572): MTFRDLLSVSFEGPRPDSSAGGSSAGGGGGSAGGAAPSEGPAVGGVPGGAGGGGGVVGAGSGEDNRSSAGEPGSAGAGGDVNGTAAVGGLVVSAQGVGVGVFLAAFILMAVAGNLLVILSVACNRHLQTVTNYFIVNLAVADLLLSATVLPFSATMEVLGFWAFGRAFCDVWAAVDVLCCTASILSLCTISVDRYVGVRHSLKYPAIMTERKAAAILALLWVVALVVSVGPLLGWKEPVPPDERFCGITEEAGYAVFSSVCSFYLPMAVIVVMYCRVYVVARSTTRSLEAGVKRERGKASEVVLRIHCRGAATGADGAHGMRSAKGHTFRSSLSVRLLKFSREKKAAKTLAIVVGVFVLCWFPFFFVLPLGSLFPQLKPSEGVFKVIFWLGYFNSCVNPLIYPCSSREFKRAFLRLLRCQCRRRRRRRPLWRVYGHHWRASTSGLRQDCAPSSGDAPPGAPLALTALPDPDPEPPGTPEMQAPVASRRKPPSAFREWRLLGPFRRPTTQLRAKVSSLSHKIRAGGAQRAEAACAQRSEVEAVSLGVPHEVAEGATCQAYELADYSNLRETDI
Description: Membranes were prepared from human embryonic kidney 293 (HEK293) cells expressing recombinant human α1D receptor. These were diluted in Assay Buffer (50 mM HEPES, 1 mM EDTA, 0.1% gelatin, pH 7.4) to provide a final concentration of membranes that gave a clear window between maximum and minimum specific binding.
Assays were performed in U-bottomed 96-well polypropylene plates. 10 μL [^3H]-prazosin (0.3 nM final concentration) and 10 μL of Compound A (10× final concentration) were added to each test well. For each assay plate 8 replicates were obtained for [^3H]-prazosin binding in the presence of 10 μL vehicle (10% (v/v) DMSO in Assay Buffer; defining maximum binding) or 10 μL BMY7378 (10 μM final concentration; defining non-specific binding (NSB)). Membranes were then added to achieve a final volume of 100 μL. […] Five washes with 250 μL wash buffer (50 mM HEPES, 1 mM EDTA, pH 7.4) were performed at 4° C. to remove unbound radioactivity. […] The plates were sealed (TopSeal A) and filter-bound radioactivity was measured with a scintillation counter (TopCount, Packard BioScierice) using a 3-minute counting protocol.
Total specific binding (B0) was determined by subtracting the mean NSB from the mean maximum binding. […]

[5] = Gravimetric vapour sorption (GVS); type: physicochemical; conditions: at 80% RH, ambient temperature
Description: GVS profiles were measured using a Dynamic Vapour Sorption DVS-1 instrument. The solid sample ca. 1-5 mg was placed into a glass vessel and the weight of the sample was recorded during a dual cycle step method (40 to 90 to 0 to 90 to 0% relative humidity (RH), in steps of 10% RH). GVS profiles were recorded at ambient temperature.

[6] = Deaggregation properties of micronised Salt Form A (Fine Particle Fraction); type: physicochemical; conditions: micronised material, across 0-75% RH
Source text: ‘Salt Form A’ was Micronised in a 50 mm jet mill, with ejector pressure 5 bar and milling pressure 1.5-2 bar, giving (90% yield). Particle size of the micronised material as determined by Malvern Laser Diffraction with dry powder feeder was d(0.1) 0.77 μm: d(0.5), 1.45μ: d(0.9): 2.65 μm.

[7] = BA1 27 μg/kg intratracheal, dihydrobromide

T1 sequence (P07550 whole entry): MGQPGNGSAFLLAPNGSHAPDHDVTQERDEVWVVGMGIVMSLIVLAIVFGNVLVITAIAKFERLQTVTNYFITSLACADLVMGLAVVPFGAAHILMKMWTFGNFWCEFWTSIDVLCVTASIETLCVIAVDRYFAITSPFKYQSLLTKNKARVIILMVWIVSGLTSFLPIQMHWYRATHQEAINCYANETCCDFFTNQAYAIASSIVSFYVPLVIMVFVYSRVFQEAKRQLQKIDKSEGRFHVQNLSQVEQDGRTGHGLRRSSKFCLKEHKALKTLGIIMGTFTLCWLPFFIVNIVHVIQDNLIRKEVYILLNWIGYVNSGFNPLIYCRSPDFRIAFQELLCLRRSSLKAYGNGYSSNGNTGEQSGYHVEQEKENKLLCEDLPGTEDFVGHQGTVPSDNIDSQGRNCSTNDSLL
T2 sequence (P08588 whole entry): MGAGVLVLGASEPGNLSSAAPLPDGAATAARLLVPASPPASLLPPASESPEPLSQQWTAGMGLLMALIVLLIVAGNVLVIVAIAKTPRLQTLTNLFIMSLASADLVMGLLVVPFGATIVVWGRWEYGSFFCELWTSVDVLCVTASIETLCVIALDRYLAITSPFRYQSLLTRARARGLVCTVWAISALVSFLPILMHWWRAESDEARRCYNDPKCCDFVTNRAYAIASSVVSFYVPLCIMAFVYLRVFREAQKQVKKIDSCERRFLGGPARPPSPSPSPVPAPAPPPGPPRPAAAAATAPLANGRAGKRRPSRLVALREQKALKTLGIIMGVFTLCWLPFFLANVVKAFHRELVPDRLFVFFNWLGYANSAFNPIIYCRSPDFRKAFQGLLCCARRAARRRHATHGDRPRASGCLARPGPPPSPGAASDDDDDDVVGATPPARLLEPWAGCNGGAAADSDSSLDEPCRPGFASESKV

Q: Which “β2 Int Act” value [1] does the source give for `CCN(CC)CCN(CCNCCc1ccc(O)c2[nH]c(=O)sc12)C(=O)CCOCCc1cccc2ccccc12` [BA1, N-[2-(Diethylamino)ethyl]-N-(2-{[2-(4-hydroxy-2-oxo-2,3-dihydro-1,3-benzothiazol-7-yl)ethyl]amino}ethyl)-3-[2-(1-naphthyl)ethoxy]propanamide dihydrobromide] here?
A: 0.8

Q: What about the increase in resistance ([2]; BA1 1 μg/kg intratracheal) of the same compound?
A: 1380±333%

Q: What about the “inhibition of methacholine-induced bronchoconstriction” value (from here on “inhibition”) ([2]; BA1 1 μg/kg intratracheal) of the same compound?
A: 38%

Q: And the increase in resistance ([2]; BA1 3 μg/kg intratracheal)?
A: 2090±239%

Q: And the “inhibition” value ([2]; BA1 3 μg/kg intratracheal)?
A: 17%

Q: What about the increase in resistance [2, 7] of the same compound?
A: 470±221% and 242±69%

Q: What about the “inhibition” value [2, 7] of the same compound?
A: 81% and 89%

Q: And the IC50 [3]?
A: > 10 µM

Q: With `CCN(CC)CCN(CCNCCc1ccc(O)c2[nH]c(=O)sc12)C(=O)CCOCCc1cccc(Cl)c1` [BA2, N-[2-(Diethylamino)ethyl]-N-(2-{[2-(4-hydroxy-2-oxo-2,3-dihydro-1,3-benzothiazol-7-yl)ethyl]amino}ethyl)-3-[2-(3-chlorophenyl)ethoxy]propanamide dihydrobromide] as the compound, how does the IC50 [4] read?
A: > 0.794 µM

Q: What about the “β2 Int Act” value [1] of the same compound?
A: 0.7

Q: And the IC50 [3]?
A: > 10 µM

Q: For `O=c1[nH]c2c(O)ccc([C@@H](O)CNCCSCCCNCCc3ccccc3Cl)c2s1` [BA3, 7-[(1R)-2-({2-[(3-{[2-(2-Chlorophenyl)ethyl]amino}propyl)thio]ethyl}amino)-1-hydroxyethyl]-4-hydroxy-1,3-benzothiazol-2(3H)-one dihydrobromide], which “β2 Int Act” value [1] is on record?
A: 0.8

Q: Which results are given for `C[N+](C)(CCOCc1ccc(Cl)cc1)Cc1cnc([C@](O)(c2ccccc2)C2CCCCC2)o1` [MA11 Salt Form A, [2-(4-chloro-benzyloxy)-ethyl]-[2-((R)-cyclohexyl-hydroxy-phenyl-methyl)-oxazol-5-ylmethyl]-dimethyl-ammonium hemi-naphthalene-1,5-disulfonate]?
A: GVS weight increase [5]: less than 0.5 % w/w; Fine Particle Fraction (FPF) [6]: > 60%
